Experimental findings from patent US20260242419A1, “A CYCLIC PEPTIDE FOR TRAPPING INTERLEUKIN-1 BETA” (Merck Sharp & Dohme LLC, priority 2023, published 2026) are described below.

Each structure is given as a SMILES string. Starred links: 1 amine or outer side, 2 acyl side, 3 side chain; linkers in the order of their positions; H or OH if unused. Non-standard residues stand in square brackets, D forms with d. Residues, ends and D or L forms follow the SMILES beside them. Phe(4-(trans-4-COOH-cHex)) = N[C@@H](Cc1ccc([C@H]2CC[C@H](C(=O)O)CC2)cc1)C(=O)O; Phe(4-(cis-4-COOH-cHex)) = N[C@@H](Cc1ccc([C@H]2CC[C@@H](C(=O)O)CC2)cc1)C(=O)O; dPro(4R-(4-pyridylmethyl)) = O=C(O)[C@H]1C[C@@H](Cc2ccncc2)CN1; Trp(βS-Me,4-F) = C[C@@H](c1c[nH]c2cccc(F)c12)[C@H](N)C(=O)O; Bip(4'-COOH) = N[C@@H](Cc1ccc(-c2ccc(C(=O)O)cc2)cc1)C(=O)O; Ala(1-bicyclo(1.1.1)pentyl) = N[C@@H](CC12CC(C1)C2)C(=O)O; dPro(4R-Bzl(4-F)) = O=C(O)[C@H]1C[C@@H](Cc2ccc(F)cc2)CN1; Ala(pyrimidin-5-yl) = N[C@@H](Cc1cncnc1)C(=O)O; Phe(4-COOH) = N[C@@H](Cc1ccc(C(=O)O)cc1)C(=O)O; Pro(cis-4-F) = O=C(O)[C@@H]1C[C@H](F)CN1; X23 = O=C([C@H](Cc1ncccn1)N[*:1])[*:2]; 4Pal = N[C@@H](Cc1ccncc1)C(=O)O; d(αMeS) = C[C@@](N)(CO)C(=O)O; αMeS = C[C@](N)(CO)C(=O)O; Orn = NCCC[C@H](N)C(=O)O; Dab = NCC[C@H](N)C(=O)O; Aib = CC(C)(N)C(=O)O

This test deals with T1, IL-1β (Homo sapiens, UniProt P01584).
T1 construct: purchased BioLegend 579404
T1 sequence (P01584 117-269): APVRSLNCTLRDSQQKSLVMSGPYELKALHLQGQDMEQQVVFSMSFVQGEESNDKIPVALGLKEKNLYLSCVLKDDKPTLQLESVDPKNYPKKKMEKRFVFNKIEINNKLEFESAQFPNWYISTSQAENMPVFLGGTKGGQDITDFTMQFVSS
Nature of the test: IL-6 assay in MRC5 cells: inhibition of IL-1β induced IL-6 secretion (AlphaLISA). It is filed as cell-based. To be noted: inhibition of IL-1β induced IL-6 secretion in MRC5 cells; read-out: MRC5 IC50. The essentials: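 Compound was pre-incubated 1 h at ambient temperature with recombinant human IL-1β at 2λ EC80 before adding human lung fibroblast MRC5 cells (3000/well) in EMEM with 0.025% BSA. After overnight culture at 37 °C, 5% CO2, secreted IL-6 in conditioned medium was measured by AlphaLISA; IC50 from 4-parameter logistic fits.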
In general terms: Bead proximity is the source of the signal in Alpha formats.
Regarding `C[C@@H](c1c[nH]c2cccc(F)c12)[C@@H]1NC(=O)[C@@H]2C[C@H](F)CN2C(=O)CNC(=O)[C@H](Cc2ccc(C(=O)O)cc2)NC(=O)[C@H](CC23CC(C2)C3)NC(=O)[C@H](Cc2ccc([C@H]3CC[C@@H](C(=O)O)CC3)cc2)NC(=O)[C@H]2C[C@@H](Cc3ccc(F)cc3)CN2C(=O)CNC(=O)[C@H](CCN)NC(=O)[C@H](CCC(N)=O)NC(=O)[C@H](CO)NC(=O)C(C)(C)NC(=O)[C@H](Cc2c[nH]c3ccccc23)NC(=O)[C@H](CO)NC(=O)C(C)(C)NC1=O` [Example 106] (cyclo([Phe(4-(cis-4-COOH-cHex))][Ala(1-bicyclo(1.1.1)pentyl)][Phe(4-COOH)]G[Pro(cis-4-F)][Trp(βS-Me,4-F)][Aib]SW[Aib]SQ[Dab]G[dPro(4R-Bzl(4-F))])), the IC50 (as a rule, the point on the concentration scale where inhibition reaches its midpoint) was determined as 0.031 nM. For the compound `C[C@@H](c1c[nH]c2cccc(F)c12)[C@@H]1NC(=O)[C@@H]2C[C@H](F)CN2C(=O)CNC(=O)[C@H](Cc2ccc(C(=O)O)cc2)NC(=O)[C@H](CC23CC(C2)C3)NC(=O)[C@H](Cc2ccc([C@H]3CC[C@@H](C(=O)O)CC3)cc2)NC(=O)[C@H]2C[C@@H](Cc3ccc(F)cc3)CN2C(=O)CNC(=O)[C@H](CCN)NC(=O)[C@H](CCC(N)=O)NC(=O)[C@H](CO)NC(=O)C(C)(C)NC(=O)[C@H](Cc2c[nH]c3ccccc23)NC(=O)[C@H](CCC(=O)O)NC(=O)[C@](C)(CO)NC1=O` [Example 107] (cyclo([Phe(4-(cis-4-COOH-cHex))][Ala(1-bicyclo(1.1.1)pentyl)][Phe(4-COOH)]G[Pro(cis-4-F)][Trp(βS-Me,4-F)][αMeS]EW[Aib]SQ[Dab]G[dPro(4R-Bzl(4-F))])), the 50% inhibitory concentration (IC50) is 0.063 nM. The value for `C[C@@H](c1c[nH]c2cccc(F)c12)[C@@H]1NC(=O)[C@@H]2C[C@H](F)CN2C(=O)CNC(=O)[C@H](Cc2ccc(C(=O)O)cc2)NC(=O)[C@H](Cc2ccncc2)NC(=O)[C@H](Cc2ccc(-c3ccc(C(=O)O)cc3)cc2)NC(=O)[C@H]2C[C@@H](Cc3ccncc3)CN2C(=O)CNC(=O)[C@H](CCCN)NC(=O)[C@H](CCC(N)=O)NC(=O)[C@H](Cc2cncnc2)NC(=O)C(C)(C)NC(=O)[C@H](Cc2c[nH]c3ccccc23)NC(=O)[C@H](CO)NC(=O)C(C)(C)NC1=O` [Example 108] (cyclo([Bip(4'-COOH)][4Pal][Phe(4-COOH)]G[Pro(cis-4-F)][Trp(βS-Me,4-F)][Aib]SW[Aib][Ala(pyrimidin-5-yl)]Q[Orn]G[dPro(4R-(4-pyridylmethyl))])) was 0.024 nM; that for `C[C@@H](c1c[nH]c2cccc(F)c12)[C@@H]1NC(=O)[C@@H]2C[C@H](F)CN2C(=O)CNC(=O)[C@H](Cc2ccc(C(=O)O)cc2)NC(=O)[C@H](CC23CC(C2)C3)NC(=O)[C@H](Cc2ccc(-c3ccc(C(=O)O)cc3)cc2)NC(=O)[C@H]2C[C@@H](Cc3ccncc3)CN2C(=O)CNC(=O)[C@H](CCCN)NC(=O)[C@H](CCC(N)=O)NC(=O)[C@H](Cc2cncnc2)NC(=O)C(C)(C)NC(=O)[C@H](Cc2c[nH]c3ccccc23)NC(=O)[C@H](CO)NC(=O)C(C)(C)NC1=O` [Example 109] (cyclo([Bip(4'-COOH)][Ala(1-bicyclo(1.1.1)pentyl)][Phe(4-COOH)]G[Pro(cis-4-F)][Trp(βS-Me,4-F)][Aib]SW[Aib][Ala(pyrimidin-5-yl)]Q[Orn]G[dPro(4R-(4-pyridylmethyl))])) was 0.036 nM; that for `C[C@@H](c1c[nH]c2cccc(F)c12)[C@@H]1NC(=O)[C@@H]2C[C@H](F)CN2C(=O)CNC(=O)[C@H](Cc2ccc(C(=O)O)cc2)NC(=O)[C@H](CC23CC(C2)C3)NC(=O)[C@H](Cc2ccc(-c3ccc(C(=O)O)cc3)cc2)NC(=O)[C@H]2C[C@@H](Cc3ccc(F)cc3)CN2C(=O)CNC(=O)[C@H](CCN)NC(=O)[C@H](CCC(N)=O)NC(=O)[C@H](CCCN)NC(=O)C(C)(C)NC(=O)[C@H](Cc2c[nH]c3ccccc23)NC(=O)[C@H](CO)NC(=O)C(C)(C)NC1=O` [Example 110] (cyclo([Bip(4'-COOH)][Ala(1-bicyclo(1.1.1)pentyl)][Phe(4-COOH)]G[Pro(cis-4-F)][Trp(βS-Me,4-F)][Aib]SW[Aib][Orn]Q[Dab]G[dPro(4R-Bzl(4-F))])) was 0.038 nM. On to `C[C@@H](c1c[nH]c2cccc(F)c12)[C@@H]1NC(=O)[C@@H]2C[C@H](F)CN2C(=O)CNC(=O)[C@H](Cc2ccc(C(=O)O)cc2)NC(=O)[C@H](Cc2ccncc2)NC(=O)[C@H](Cc2ccc(-c3ccc(C(=O)O)cc3)cc2)NC(=O)[C@H]2C[C@@H](Cc3ccncc3)CN2C(=O)CNC(=O)[C@H](CCN)NC(=O)[C@H](CCC(N)=O)NC(=O)[C@H](Cc2cncnc2)NC(=O)[C@@](C)(CO)NC(=O)[C@H](Cc2c[nH]c3ccccc23)NC(=O)[C@H](CO)NC(=O)C(C)(C)NC1=O` [Example 111] (cyclo([Bip(4'-COOH)][4Pal][Phe(4-COOH)]G[Pro(cis-4-F)][Trp(βS-Me,4-F)][Aib]SW[d(αMeS)][Ala(pyrimidin-5-yl)]Q[Dab]G[dPro(4R-(4-pyridylmethyl))])), for which the IC50 came to 0.019 nM. The figure for `C[C@@H](c1c[nH]c2cccc(F)c12)[C@@H]1NC(=O)[C@@H]2C[C@H](F)CN2C(=O)CNC(=O)[C@H](Cc2ccc(C(=O)O)cc2)NC(=O)[C@H](CC23CC(C2)C3)NC(=O)[C@H](Cc2ccc(-c3ccc(C(=O)O)cc3)cc2)NC(=O)[C@H]2C[C@@H](Cc3ccncc3)CN2C(=O)CNC(=O)[C@H](CCN)NC(=O)[C@H](CCC(N)=O)NC(=O)[C@H](Cc2cncnc2)NC(=O)[C@@](C)(CO)NC(=O)[C@H](Cc2c[nH]c3ccccc23)NC(=O)[C@H](CO)NC(=O)C(C)(C)NC1=O` [Example 112] (cyclo([Bip(4'-COOH)][Ala(1-bicyclo(1.1.1)pentyl)][Phe(4-COOH)]G[Pro(cis-4-F)][Trp(βS-Me,4-F)][Aib]SW[d(αMeS)][Ala(pyrimidin-5-yl)]Q[Dab]G[dPro(4R-(4-pyridylmethyl))])) is 0.018 nM. Consider `C[C@@H](c1c[nH]c2cccc(F)c12)[C@@H]1NC(=O)[C@@H]2C[C@H](F)CN2C(=O)CNC(=O)[C@H](Cc2ccc(C(=O)O)cc2)NC(=O)[C@H](Cc2ccncc2)NC(=O)[C@H](Cc2ccc(-c3ccc(C(=O)O)cc3)cc2)NC(=O)[C@H]2C[C@@H](Cc3ccc(F)cc3)CN2C(=O)CNC(=O)[C@H](CCN)NC(=O)[C@H](CCC(N)=O)NC(=O)[C@H](Cc2ncccn2)NC(=O)C(C)(C)NC(=O)[C@H](Cc2c[nH]c3ccccc23)NC(=O)[C@H](CCC(=O)O)NC(=O)C(C)(C)NC1=O` [Example 113] (cyclo([Bip(4'-COOH)][4Pal][Phe(4-COOH)]G[Pro(cis-4-F)][Trp(βS-Me,4-F)][Aib]EW[Aib][X23]Q[Dab]G[dPro(4R-Bzl(4-F))])), for which the IC50 was 0.018 nM.

Turning to `C[C@@H](c1c[nH]c2cccc(F)c12)[C@@H]1NC(=O)[C@@H]2C[C@H](F)CN2C(=O)CNC(=O)[C@H](Cc2ccc(C(=O)O)cc2)NC(=O)[C@H](Cc2ccncc2)NC(=O)[C@H](Cc2ccc([C@H]3CC[C@H](C(=O)O)CC3)cc2)NC(=O)[C@H]2C[C@@H](Cc3ccc(F)cc3)CN2C(=O)CNC(=O)[C@H](CCN)NC(=O)[C@H](CCC(N)=O)NC(=O)[C@H](Cc2cncnc2)NC(=O)C(C)(C)NC(=O)[C@H](Cc2c[nH]c3ccccc23)NC(=O)[C@H](CCC(=O)O)NC(=O)C(C)(C)NC1=O` [Example 114] (cyclo([Phe(4-(trans-4-COOH-cHex))][4Pal][Phe(4-COOH)]G[Pro(cis-4-F)][Trp(βS-Me,4-F)][Aib]EW[Aib][Ala(pyrimidin-5-yl)]Q[Dab]G[dPro(4R-Bzl(4-F))])), the IC50 was found to be 0.035 nM.
